Measured values as given in US11510859B2, “Method for improving aqueous solubility of water-insoluble or slightly water-soluble drugs” (MARINOMED BIOTECH AG, priority 2015, dated 2022).

Key:
[1] = Saturation concentrations of drugs in buffered solvent, HPLC of supernatant (Example 4); type: physicochemical; settings: McIlvaine buffer pH 6.0; compound pre-dissolved in propylene glycol
Method: 250 μl “McIlvaine 0.1%” were mixed with 50 μl dexpanthenol stock solution, brought to 900 μl with distilled water, and combined and vigorously mixed with 100 μl experimental compound pre-dissolved resp. pre-suspended in propylene glycol. Alternative solutions with compound pre-dilutions/pre-suspensions in DMSO were prepared. Samples were centrifuged for 10 min at 15800 rcf. Aliquots of the clear supernatants were transferred into autosampler glass vials and the content of the dissolved experimental compounds was analyzed by HPLC using isocratic elution with 70% or 80% acetonitrile 0.01% TFA/[…] or 30% water 0.01% TFA at 1 ml/min and 50° C. for 10 min on an Agilent Zorbax Eclipse Plus C18 column (3.5 μm, 4.6×150 mm) and UV absorbance detection at the wavelengths appropriate for the respective experimental compound.

[2] = Solubility of fluticasone propionate in 0.25x McIlvaine buffer (Examples 10, 11); type: physicochemical
Method: 0% Propylene glycol • B . . . 5% Propylene glycol • C . . . 10% Propylene glycol • * . . . w/v % Escin • # . . . v/v % Dexpanthenol • y-axis . . . concentration of dissolved fluticasone propionate
FIG. 7 represents the impact of dexpanthenol and saponin concentration on the dissolution of fluticasone propionate in 0.25× McIlvaine buffer containing 5% propylene glycol (maximum concentration achieved=5 μg/ml). […] The presence of 5% dexpanthenol seems to deliver solubility boosting effects. • A . . . 0% Dexpanthenol • B . . . 5% Dexpanthenol • y-axis . . . concentration of dissolved fluticasone propionate • x-axis . . . % Glycyrrhizin

[3] = Fluticasone propionate solubility in the presence of hyaluronic acid (Examples 3, 14); type: physicochemical; settings: 5% propylene glycol, 7.5 g/l hyaluronic acid; one month storage at ambient temperature
Method: Samples of series A (0% dexpanthenol): 2.5 ml solution containing the respective escin concentration (McIlvaine 0.01%, 0.02%, 0.03% or McIlvaine buffer) were mixed with 3.6 ml hyaluronic acid stock solution and 0.5 ml Fluticasone propionate pre-solution and filled up to 10 ml with distilled water. Samples of series B (2% dexpanthenol): 2.5 ml solution containing the respective escin concentration (McIlvaine 0.01%, 0.02%, 0.03% or McIlvaine buffer) were mixed with 0.2 ml dexpanthenol, 3.6 ml Hyaluronic acid stock solution and 0.5 ml fluticasone propionate pre-solution and filled up to 10 ml with distilled water. […]
After 1 month storage at room temperature, samples were taken and centrifuged for 11 min at 15700 rcf. The clear supernatant was filled into glass vials and the concentration of dissolved FP (maximal 5 μg/ml) was measured in duplicates by HPLC.
Fluticasone propionate in the presence of hyaluronic acid was analyzed by RP-HPLC (UV absorbance detection at 235 nm) using a gradient from 5% acetonitrile to 90% acetonitrile in water containing 0.01% TFA (see detailed gradient description below).
Solvent A: water HPLC gradient grade 0.01% trifluoroacetic acid. […] From the fluticasone propionate containing samples 40 μl each were injected and analyzed. […]

porcine nasal mucosa = assay: Ex vivo penetration of fluticasone propionate into porcine nasal mucosa; type: in vitro ADME; settings: 5 μg/ml; 0.03% escin, 3% propylene glycol, 5% dexpanthenol vs suspension without saponin; 15-60 min
Method: In order to test for the bioavailability of compositions prepared in accordance with the present invention, experiments were conducted ex vivo wherein an experimental composition comprising fluticasone propionate as a compound of interest was compared to a composition comprising the same compound at the same concentration but without a saponin as a solubilization enhancer.
FIG. 14 represents the concentrations of fluticasone propionate penetrated ex-vivo into porcine nasal mucosa at different time points. The experimental composition comprised 5 μg/ml fluticasone propionate dissolved in aqueous buffer comprising 0.03% escin, 3% propylene glycol and 5% dexpanthenol. The comparative specimen was a suspension comprising the same aqueous buffer and no saponin nor dexpanthenol. Both formulations were added ex-vivo onto surgically extracted porcine nasal mucosa. After 15, 30, 45 and 60 minutes of incubation the mucosa was washed and the amount of permeated fluticasone propionate was determined by HPLC-MS/MS. • A—experimental composition; • B—comparative fluticasone propionate suspension; • x-axis=incubation time in minutes; • y-axis=ng fluticasone propionate/g tissue.

[4] = U.S. Pat. No. 4,868,170; cited from earlier work

Row | Compound | Saturation concentration in 10% propylene glycol or DMSO without escin or dexpanthenol [1] [µg/mL] | Saturation concentration in 10% propylene glycol or DMSO, 0.1% escin and 5% dexpanthenol [1] [µg/mL] | best achieved concentration without saponin relative to maximum concentration with at least 0.03% escin ([2]; 0.25x McIlvaine buffer pH 6, propylene glycol 0-10%, dexpanthenol 0-5%) | maximum concentration achieved ([2]; 0.25x McIlvaine buffer, 5% propylene glycol, glycyrrhizin, dexpanthenol 0% or 5%) [µg/mL] | effect of dexpanthenol on fluticasone propionate solubility in the presence of escin [3] | concentration of drug permeated into mucosal tissue, experimental composition versus comparative suspension (porcine nasal mucosa) | aqueous solubility [4]
1 | CCC(=O)O[C@]1(C(=O)SCF)[C@H](C)C[C@H]2[C@@H]3C[C@H](F)C4=CC(=O)C=C[C@]4(C)[C@@]3(F)[C@@H](O)C[C@@]21C [Fluticasone propionate] | 0.68 | 5 | about 50% | 5 | synergistically boost the solubility enhancing activity of escin | around five times higher | 
2 | CCS[C@]1(SC)CC[C@H]2[C@@H]3CCC4=CC(=O)C=C[C@]4(C)[C@@]3(F)[C@@H](O)C[C@@]21C [tipredane] |  |  |  |  |  |  | less than 0.2 mg/l
